Marks after values point to notes of the source that are not given here.
Experiments:
[1] = system: carbon tetrachloride model of liver fibrosis; experiment: Carbon tetrachloride (in vivo) model of liver fibrosis, weekly gliotoxin injection; parameters: species or system rat; details: for Liver α-sma staining (number of α-sma-positive cells) / Serum ALP / Serum ALT / Sirius red staining (mid intralobular μm): weekly gliotoxin injection 3 mg/kg i.p.
Method: Rats were randomly sorted into groups and treated with 2 mL CCl4:olive oil (1:1 [vol/vol])/kg body weight by intraperitoneal injection twice weekly to cause liver fibrosis. Control animals were treated with 1 mL olive oil/kg body weight by intraperitoneal injection. Gliotoxin was administered at up to 3 mg gliotoxin/kg body weight by intraperitoneal injection. Gliotoxin was dissolved in dimethyl sulfoxide (DMSO) as a vehicle, and control animals received DMSO alone.
At the required time, rats were killed by carbon dioxide asphyxiation and tissues removed for analysis. Serum was prepared and analyzed for alkaline phosphatase and alanine aminotransferase activities essentially as previously described. (Wright et al., Biochem. Pharmacol., (1992) 43:237-243) Histochemical staining of formalin-fixed liver sections with H&E, Sirius red, and immunochemical staining for α-smooth muscle actin were performed essentially as previously described (Iredale et al.,—1998—supra)

rat hepatocytes = experiment: Rat hepatocyte viability by attachment and trypan blue exclusion; format: cell-based; details: 50 μmol/L gliotoxin, four hours
Method: Rat hepatocytes were isolated by collagenase perfusion essentially as previously described. (Harvey et al., Biochemical J., (1998) 331:273-281). Hepatocytes were cultured as outlined for hepatic stellate cells except that they were initially seeded onto collagen coated plates in William's medium E supplemented with 10% fetal calf serum and 1 μg/mL insulin for the first 2 hours.
Cells were treated with gliotoxin dissolved in DMSO vehicle (added to medium from a 2000-fold molar concentrated stock). Control cells received DMSO vehicle only (i.e., 0.05% vol/vol). All other additions to culture medium were made from concentrated stocks dissolved in DMSO or by direct addition to culture medium. Protein contents of wells were determined using the Lowry assay (Lowry et al., J. Biol. Chem., (1951)193: 265-275).
The effect of various compounds on cell viability and attachment was determined. Viability of rat hepatocytes as judged by attachment and 0.1% (wt/vol) trypan blue exclusion after four hours treatment with: […]

hepatic stellate cells [2] = experiment: Nerve growth factor induced apoptosis of hepatic stellate cells; format: cell-based; details: NGF 100 ng/ml, serum-free; TIMP-1 142.5 ng/ml
Method: Apoptosis of hepatic stellate cells was induced by absolute serum deprivation, cycloheximide treatment (Issa et al., Gut (2001) 48: S48-S57), or exposure to nerve growth factor as previously described (Trim et al., Am. J. Pathol., (2000) 156, 1235-1243). Hepatic stellate cells were cultured in 24-well tissue culture plates. Rat and human hepatic stellate cells were exposed to proapoptotic stimuli with and without recombinant TIMP-1 (Biogenesis, Poole, UK) and other manipulations as detailed below. Following a 4 hour incubation at 37° C., nuclear morphology was assessed by adding acridine orange to each well (final concentration 1 μg/ml) and observing the cells under blue fluorescence. The total number of apoptotic bodies was counted, and any apoptotic bodies floating in the supernatant were included by racking up the objective lens. The total number of cells per field was counted, and an apoptotic index was calculated. Each condition was performed in duplicate, and three high power fields were counted for each well. […] To examine for autocrine effects, hepatic stellate cells were incubated for 18 hours with azide-free polyclonal neutralizing antibodies to TIMP-1 and a nonimmune IgG control (Santa Cruz Biotechnology, Inc., Santa Cruz, Calif.), and responses were assessed by acridine orange staining and counting. […]

hepatic stellate cells [3] = experiment: TUNEL staining of cycloheximide-treated hepatic stellate cells; format: cell-based; details: 50 μM cycloheximide 18 h; TIMP-1 100 ng/ml
Method: Hepatic stellate cells were cultured on glass chamber slides and then exposed to 50 μM cycloheximide for 18 h with and without TIMP-1 (100 ng/ml). Slides were then stained for DNA fragmentation characteristic of apoptosis by the TUNEL reaction as previously described (Iredale et al., J. Clin. Invest., (1998) 102, 538-549) with the modifications recently described to reduce false positively (Stahelin et al., Mol. Pathol., (1998) 51, 204-208). Each slide was then analyzed by a blinded observer who counted the number of TUNEL-positive apoptotic figures and the TUNEL-negative cells over 10 high power fields for each condition.
A further pathognomonic feature of apoptosis is the fragmentation of DNA into oligonucleosomal lengths (Evan et al., Cell (1992) 69: 119-128). Fragmented DNA can be identified by the TUNEL technique, which can therefore be used to further quantify the apoptotic response of hepatic stellate cells in the presence and absence of cycloheximide. To assess DNA fragmentation activated hepatic stellate cells were therefore induced to undergo apoptosis by cycloheximide treatment in the presence and absence of TIMP-1 and the number of TUNEL positive cells assessed. […] As a control cells which were treated with serum alone were analyzed. […]

Row | Compound | liver serum enzymes caused by carbon tetrachloride treatment ([1]; gliotoxin administered during CCl4 treatment) | number of activated hepatic stellate cells and thickness of fibrotic bands ([1]; gliotoxin administered during the liver insult (CCl4)) | hepatotoxicity of long term administration ([1]; weekly gliotoxin) | Liver α-sma staining (number of α-sma-positive cells) ([1]; CCl4 twice weekly 4 weeks) | Serum ALP ([1]; CCl4 twice weekly 4 weeks) | Serum ALT ([1]; CCl4 twice weekly 4 weeks) | Sirius red staining (mid intralobular μm) ([1]; CCl4 twice weekly 4 weeks) | Liver α-sma staining (number of α-sma-positive cells) ([1]; no CCl4 (olive oil 4 weeks)) | Serum ALP ([1]; no CCl4 (olive oil 4 weeks)) [μ/mL] | Serum ALT ([1]; no CCl4 (olive oil 4 weeks)) [μ/mL] | Sirius red staining (mid intralobular μm) ([1]; no CCl4 (olive oil 4 weeks)) [μm] | hepatocytes that do not exclude 0.1% (wt/vol) trypan blue (rat hepatocytes) | hepatocyte attachment to the substratum / membrane integrity (rat hepatocytes; 10 ng/mL TNF-α with 10 μmol/L cycloheximide) | apoptosis induced by exposure to NGF (hepatic stellate cells [2]) | cells containing fragmented DNA (TUNEL) (hepatic stellate cells [3])
1 | CN1C(=O)[C@]23CC4=CC=C[C@H](O)[C@H]4N2C(=O)[C@@]1(CO)SS3 [gliotoxin] | significantly reduces the levels of liver serum enzymes | significantly reduces the number of activated hepatic stellate cells and thickness of fibrotic bands | no evidence that long term administration of gliotoxin is itself hepatotoxic | 6 ± 1.2 | 429 ± 25^a μ/mL | 300 ± 111^b μ/mL | 4.6 ± 3.1^£ μm | 1.4 ± 1.38 | 249 ± 26 | 89 ± 58 | 0 | approximately 90% | significant reductions in cell attachment to the substratum | – | –
2 | TIMP-1: recombinant tissue inhibitor of matrix metalloproteases 1 (Biogenesis) | – | – | – | – | – | – | – | – | – | – | – | – | – | significantly inhibited | significantly reduced numbers of cells containing fragmented DNA

From patent publication US20080220056A1, “Treatment for liver disease” (UNIVERSITY OF SOUTHAMPTON, priority 2002, published 2008)
